Experimental data published in US20240140948A1, “PYRIDOPYRIMIDINE DERIVATIVES AS KRAS INHIBITORS” (BETA PHARMA, INC., priority 2021, published 2024).
Like-named read-outs stand apart in the source and are kept apart here.

Experiments:
KRAS G12C = target: T1, KRAS G12C (Homo sapiens, UniProt P01116, G12C); assay: KRAS G12C/SOS1 Nucleotide Exchange Assay (SOS1-mediated Bodipy-GDP to GTP exchange); assay type: biochemical; conditions: substrate Bodipy-GDP/Kras G12C, 0.5% DMSO; 30 min pre-incubation at RT; dRFU analysis method for covalent inhibitors
T1 construct: aa 2-169, expressed in E. coli; His-tag (TEV cleavable) (N); purchased Reaction Biology Corporation (RBC) SOS1: RBC cat #MSC-11-502; KRAS G12C: none printed; host or cells: E. coli
Method: The excess Bodipy-GDP is separated from loaded protein using a spin desalting column.
• 1. […] Deliver compounds in 100% DMSO into buffer using acoustic technology (Echo550; nanoliter range). • 3. […] Prepare 3× (SOS1+GTP) solution in reaction buffer. • 5. Deliver 5 μL of SOS1+GTP solution into reactions wells (deliver GTP only to column 1 for no SOS1 control). • 6.
where Yraw is defined as fluorescence at time t, Ao is the average initial fluorescence with no SOS1, and M is the minimum fluorescence at the end of the reaction at the maximum SOS1.
The background subtracted signals (no SOS1 protein wells were used as background) were converted to % activity relative to DMSO controls. Data was analyzed using GraphPad Prism 4 with “sigmoidal dose-response (variable slope)”; 4 parameters with Hill Slope. The constraints were bottom (constant equal to 0) and top (must be less than 120).

[1] = Pharmacokinetics in male CD-1 mice; assay type: in vivo; conditions: for MRT inf: read-out: MRT0-inf; for MRT last: read-out: MRT0-last
Method: The pharmacokinetic profile of the Example 2 (compound la) was determined in male CD-1 mice by WuXi AppTec Co., Ltd., 1318 Wuzhong Avenue, Wuzhong District, Suzhou, China, 215104.

[2] = mouse, 30 mg/kg PO, mean plasma

T1 sequence (P01116 2-169 G12C): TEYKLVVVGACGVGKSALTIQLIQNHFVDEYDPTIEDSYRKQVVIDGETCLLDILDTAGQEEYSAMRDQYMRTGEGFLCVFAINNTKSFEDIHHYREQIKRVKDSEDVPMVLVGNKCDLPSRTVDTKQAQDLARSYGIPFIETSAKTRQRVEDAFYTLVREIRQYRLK

Compound `C=CC(=O)N1CCN(c2nc(OC[C@@H]3CCCN3C)nc3cc(-c4cccc5cccc(Cl)c45)cnc23)C[C@@H]1CC#N` [Example 1, 2-((S)-1-Acryloyl-4-(7-(8-chloronaphthalen-1-yl)-2-(((S)-1-methylpyrrolidin-2-yl)methoxy)pyrido[3,2-d]pyrimidin-4-yl)piperazin-2-yl)acetonitrile] has an IC50 (KRAS G12C) of 27 nM.

Work on `C=C(F)C(=O)N1CCN(c2nc(OC[C@@H]3CCCN3C)nc3cc(-c4cccc5cccc(Cl)c45)cnc23)C[C@@H]1CC#N` [Example 2, 2-((S)-4-(7-(8-Chloronaphthalen-1-yl)-2-(((S)-1-methylpyrrolidin-2-yl)methoxy)pyrido[3,2-d]pyrimidin-4-yl)-1-(2-fluoroacryloyl)piperazin-2-yl)acetonitrile] yielded an AUCExtra ([1]; 3 mg/kg IV, mean plasma) of 9.23%, an AUMCExtra ([1]; 3 mg/kg IV, mean plasma) of 35.2% and a Tlast ([1]; 3 mg/kg IV, mean plasma) of 8.00 h. It also gave an AUCExtra ([1]; 30 mg/kg PO, mean plasma) of 17.1%, an AUMCExtra ([1]; 30 mg/kg PO, mean plasma) of 43.8% and a Tlast ([1]; 30 mg/kg PO, mean plasma) of 8.00 h. It also gave an AUC(0-inf) ([1]; mouse, 3 mg/kg IV, mean plasma) of 2450 ng·h/mL, an AUC(0-t) ([1]; mouse, 3 mg/kg IV, mean plasma) of 2220 ng·h/mL and a C0 ([1]; mouse, 3 mg/kg IV, mean plasma) of 1270 ng/mL. For the same compound, the clearance ([1]; mouse, 3 mg/kg IV, mean plasma) was 20.4 mL/min/kg, the half-life ([1]; mouse, 3 mg/kg IV, mean plasma, Rsq_adj 0.828 (<0.9, might not be accurately estimated)) was 1.89 h and the MRT inf ([1]; mouse, 3 mg/kg IV, mean plasma) was 2.81 h. It also gave an MRT last ([1]; mouse, 3 mg/kg IV, mean plasma) of 2 h, a Vd ([1]; mouse, 3 mg/kg IV, mean plasma, read-out: Vdss) of 3.44 L/kg and an AUC(0-inf) [1, 2] of 7070 ng·h/mL. The AUC(0-t) [1, 2] was 5860 ng·h/mL, the Cmax [1, 2] was 1220 ng/mL and the Tmax [1, 2] was 1 h. For the same compound, the half-life [1, 2] was 2.88 h, the MRT inf [1, 2] was 4.75 h and the MRT last [1, 2] was 3.22 h. It also gave a bioavailability ([1]; mouse, plasma, 30 mg/kg PO vs 3 mg/kg IV, calculated from AUC0-inf with nominal dose, read-out: Bioavailability (% F)) of 28.8% and an IC50 (KRAS G12C) of 63 nM.
